Results reported in US6326401A, “Formulation for the oromucosal, in particular pernasal, route” (Immunotech, priority 1998, dated 2001).
Where two headings read alike, the source gives them in different places.

Experiments:
[1] = Compared bioavailability of sublingual formulations without and with Labrasol (Example 7); type: in vivo, healthy volunteer subjects; conditions: 10 mg, sublingual tablet; for AUC at 6 h / Tmax: human, serum; for AUC at 6 h: observation period 6 hours; for Tmax: read-out: apparent Tmax (converted)
Experimental: The serum concentrations of IS 159 as a function of time were measured on healthy volunteer subjects. These subjects received an identical amount of active substance IS 159 (10 mg) in the form of tablets in the absence or presence of Labrasol® (2%) by sublingual administration.

[2] = Reproducibility of bioavailability of the aqueous nasal solution plus Labrasol (Example 5); type: in vivo, human subjects; conditions: 100 μl (4 mg), with Labrasol, 8 subjects
[3] = Comparison between aqueous nasal solution and sublingual formulation (Example 8); type: in vivo, healthy volunteer subjects; conditions: human, serum, 10 mg; for AUC(0-inf): read-out: AUC from time 0 to infinity
Experimental: (§1) The serum concentrations of IS 159 as a function of time were measured on healthy volunteer subjects.

[4] = Compared bioavailability of aqueous nasal solution/aqueous subcutaneous solution (Example 9); type: in vivo, healthy volunteer subjects; conditions: 4 mg; for Tmax / half-life: human, serum; for half-life: read-out: Terminal half-life (converted)
Experimental: as §1

[5] = Dose/effect and reproducibility of bioavailability, nasal 4 mg and 7 mg (Example 6); type: in vivo, human subjects; conditions: with Labrasol
Experimental: The black squares represent the dose of 4 mg and the white squares represent the dose of 7 mg.

[6] = Bioavailability test: serum IS 159 after nasal administration of the solution and control solution of example 1 (Example 4); type: in vivo, man; conditions: for AUC at 4 h / Tmax: human, serum; for AUC at 4 h: observation period 4 hours; for Tmax: read-out: apparent Tmax (converted)
[7] = control solution without Labrasol

AUC at 6 h ([1]; control (2% lactose)): 0.42 ng·h/mL
Tmax ([1]; control without Labrasol): 45 min
AUC at 6 h ([1]; with 2% Labrasol): 9.72 ng·h/mL
Tmax ([1]; with 2% Labrasol): 35 min
absorption (Cmax) ([1]; with 2% Labrasol vs control): increases the absorption (Cmax)
interindividual and intraindividual reproducibilities of the pharmacokinetic parameters [2]: good
AUC(0-inf) ([3]; nasal solution with Labrasol): 166 ng·h/mL
AUC(0-inf) ([3]; sublingual tablet with 2% Labrasol): 12 ng·h/mL
half-life ([3]; nasal and sublingual with Labrasol, read-out: terminal half-life (converted)): ~150 min
Tmax ([4]; sc, mean s.c.): 30 min
half-life ([4]; sc, mean s.c.): 150 min
Tmax ([4]; mean nasal, with Labrasol): 15 min
half-life ([4]; mean nasal, with Labrasol): 150 min
AUC/dose ([4]; mean nasal, with Labrasol): 14 (h.ng/ml)(mg dose IS 159)
Cmax/dose ([4]; mean nasal, with Labrasol): 11 ng/mL
AUC/dose ([4]; mean s.c.): 36 (h.ng/ml)(mg dose IS 159)
Cmax/dose ([4]; mean s.c.): 20 ng/mL
AUC/dose, ratio Nasal/s.c. ([4]; nasal (with Labrasol) / s.c.): 39%
Cmax/dose, ratio Nasal/s.c. ([4]; nasal (with Labrasol) / s.c.): 55%
Tmax, Nasal/s.c. ([4]; nasal (with Labrasol) vs s.c.): reduced
terminal half-life, change ([4]; nasal vs subcutaneous): not changed significantly
intra-individual and interindividual reproducibility of the pharmacokinetic parameters [5]: good
ratios of the AUCs and the maximum concentrations [5]: constant and high
AUC at 4 h [6, 7]: 12 ng·h/mL
Tmax [6, 7]: 30 min
AUC at 4 h ([6]; with Labrasol): 85 ng·h/mL
Tmax ([6]; with Labrasol): 10 to 15 min
absorption (Cmax) ([6]; with Labrasol vs control solution): increases the absorption (Cmax)
Structure (SMILES): NCCc1c[nH]c2ccc(OCC(=O)NC(Cc3ccc(O)cc3)C(=O)NCC(N)=O)cc12 (centres unmarked) [IS 159, tryptamine 5-O-carboxymethyl-tyrosyl-glycinamide]
bioavailability ([4]; nasal solution with Labrasol, compared with subcutaneous): significant and faster than by the subcutaneous route
